# Test results as given in patent US10155021B2, “Antimicrobial 4-oxoquinolizines” (Emergent Product Development Gaithersburg Inc., priority 2011, dated 2018).
# Read-outs that look alike come from different tables or passages of the source.
# How the values were obtained:
# [1] = tested on: P. aeruginosa ATCC 27853; assay: MIC, selected panel of Gram-positive and Gram-negative strains (Example 5); assay type: cell-based
# [2] = tested on: S. aureus ATCC 25923; assay: as above; assay type: cell-based
# [3] = tested on: S. aureus ATCC 43300 (MRSA, FQ-S); assay: as above; assay type: cell-based, Staphylococcus aureus
# [4] = tested on: A. baumannii ATCC 19606; assay: as above; assay type: cell-based, Acinetobacter baumannii
# [5] = tested on: B. thailandensis E264; assay: microbe, parasite or virus in culture; assay type: cell-based, Burkholderia thailandensis; settings: for MIC: Burkholderia thailandensis, E264, read-out: MIC B. thailandensis E264
# [6] = tested on: E. coli ATCC 25922; assay: MIC, selected panel of Gram-positive and Gram-negative strains (Example 5); assay type: cell-based, Escherichia coli
# [7] = tested on: S. aureus BAA-1556 (USA300-Type MRSA, FQ-R); assay: as above; assay type: cell-based, Staphylococcus aureus
# [8] = Pseudomonas aeruginosa, ATCC27853, read-out: MIC P. aeruginosa ATCC 27853
# [9] = Staphylococcus aureus, ATCC25923, read-out: MIC S. aureus ATCC 25923
# [10] = Staphylococcus aureus, read-out: MIC S. aureus ATCC 43300 (MRSA, FQ-S)
# [11] = Acinetobacter baumannii, ATCC19606, read-out: MIC A. baumannii ATCC 19606
# [12] = Escherichia coli, ATCC25922, read-out: MIC E. coli ATCC 25922
# [13] = Staphylococcus aureus, read-out: MIC S. aureus BAA-1556 (USA300-Type MRSA, FQ-R)
# [14] = Pseudomonas aeruginosa, ATCC27853; read-out: MIC P. aeruginosa ATCC 27853
# [15] = Staphylococcus aureus, ATCC25923; read-out: MIC S. aureus ATCC 25923
# [16] = Staphylococcus aureus; read-out: MIC S. aureus ATCC 43300 (MRSA, FQ-S)
# [17] = Acinetobacter baumannii, ATCC19606; read-out: MIC A. baumannii ATCC 19606
# [18] = Escherichia coli, ATCC25922; read-out: MIC E. coli ATCC 25922
# [19] = Staphylococcus aureus; read-out: MIC S. aureus BAA-1556 (USA300-Type MRSA, FQ-R)
Structure (SMILES),"MIC [1, 8]","MIC [2, 9]","MIC [3, 10]","MIC [4, 11]",MIC [5],"MIC [6, 12]","MIC [7, 13]","MIC [1, 14]","MIC [2, 15]","MIC [3, 16]","MIC [4, 17]","MIC [6, 18]","MIC [7, 19]","MIC S. aureus ATCC 43300 (MRSA, FQ-S) [3]",MIC A. baumannii ATCC 19606 [4],MIC B. thailandensis E264 [5],MIC E. coli ATCC 25922 [6],"MIC S. aureus BAA-1556 (USA300-Type MRSA, FQ-R) [7]"
"Cc1n[nH]c2ccc(-c3ccn4c(=O)c(C(=O)[O-])cc(C5CC5)c4c3C)cc12.[K+] [Compound 80K salt, potassium 8-(3-methyl-1H-indazol-5-yl)-1-cyclopropyl-9-methyl-4-oxo-4H-quinolizine-3-carboxylate]",4 µg/mL,≤ 0.004 µg/mL,≤ 0.004 µg/mL,0.25 µg/mL,1 µg/mL,0.064 µg/mL,–,–,–,–,–,–,–,–,–,–,–,–
"Cc1c(-c2ccc3c(c2)C(=O)NC3)ccn2c(=O)c(C(=O)[O-])cc(C3CC3)c12.[K+] [Compound 68K salt, potassium 8-(3-oxoisoindolin-5-yl)-1-cyclopropyl-9-methyl-4-oxo-4H-quinolizine-3-carboxylate]",2 µg/mL,≤ 0.004 µg/mL,≤ 0.004 µg/mL,0.25 µg/mL,1 µg/mL,0.064 µg/mL,0.25 µg/mL,–,–,–,–,–,–,–,–,–,–,–
"Cc1cc(-c2ccn3c(=O)c(C(=O)[O-])cc(C4CC4)c3c2C)cnc1N.[K+] [Compound 79K salt, potassium 8-(6-amino-5-methylpyridin-3-yl)-1-cyclopropyl-9-methyl-4-oxo-4H-quinolizine-3-carboxylate]",2 µg/mL,≤ 0.004 µg/mL,≤ 0.004 µg/mL,0.064 µg/mL,0.5 µg/mL,0.016 µg/mL,–,–,–,–,–,–,–,–,–,–,–,–
"Cc1c(-c2cnc3[nH]ccc3c2)ccn2c(=O)c(C(=O)[O-])cc(C3CC3)c12.[K+] [Compound 85K salt, potassium 8-(1H-pyrrolo[2,3-b]pyridin-5-yl)-1-cyclopropyl-9-methyl-4-oxo-4H-quinolizine-3-carboxylate]",1 µg/mL,≤ 0.004 µg/mL,≤ 0.004 µg/mL,0.064 µg/mL,0.25 µg/mL,0.032 µg/mL,0.064 to 0.125 µg/mL,–,–,–,–,–,–,–,–,–,–,–
"Cc1c(-c2ccc(O)nc2)ccn2c(=O)c(C(=O)[O-])cc(C3CC3)c12.[K+] [Compound 55K salt, potassium 8-(6-hydroxypyridin-3-yl)-1-cyclopropyl-9-methyl-4-oxo-4H-quinolizine-3-carboxylate]",> 8 µg/mL,0.5 µg/mL,0.125 to 0.25 µg/mL,8 µg/mL,8 µg/mL,0.5 µg/mL,8 µg/mL,–,–,–,–,–,–,–,–,–,–,–
"Cc1c(-c2ccncc2)c(F)cn2c(=O)c(C(=O)[O-])cc(C3CC3)c12.[K+] [Compound 59K salt, potassium 8-(pyridin-4-yl)-1-cyclopropyl-7-fluoro-9-methyl-4-oxo-4H-quinolizine-3-carboxylate]",4 µg/mL,0.032 µg/mL,0.016 µg/mL,0.25 µg/mL,0.5 µg/mL,0.064 µg/mL,0.5 µg/mL,–,–,–,–,–,–,–,–,–,–,–
"Cc1cc(-c2ccn3c(=O)c(C(=O)[O-])cc(C4CC4)c3c2C)ccn1.[K+] [Compound 65K salt, potassium 8-(2-methylpyridin-4-yl)-1-cyclopropyl-9-methyl-4-oxo-4H-quinolizine-3-carboxylate]",4 µg/mL,0.016 µg/mL,0.008 µg/mL,0.25 µg/mL,0.5 µg/mL,0.032 to 0.064 µg/mL,0.25 µg/mL,–,–,–,–,–,–,–,–,–,–,–
"Cc1c(-c2cn[nH]c2)ccn2c(=O)c(C(=O)[O-])cc(C3CC3)c12.[K+] [Compound 67K salt, potassium 8-(1H-pyrazol-4-yl)-1-cyclopropyl-9-methyl-4-oxo-4H-quinolizine-3-carboxylate]",2 µg/mL,0.016 µg/mL,0.016 µg/mL,0.25 µg/mL,0.25 µg/mL,0.032 µg/mL,1 µg/mL,–,–,–,–,–,–,–,–,–,–,–
"Cc1c(-c2ccc(N)nc2)c(F)cn2c(=O)c(C(=O)[O-])cc(C3CC3)c12.[K+] [Compound 60K salt, potassium 8-(6-aminopyridin-3-yl)-1-cyclopropyl-7-fluoro-9-methyl-4-oxo-4H-quinolizine-3-carboxylate]",2 µg/mL,0.008 µg/mL,–,0.064 µg/mL,0.5 µg/mL,0.032 µg/mL,0.125 µg/mL,–,–,–,–,–,–,–,–,–,–,–
"Cc1c(-c2ccc(O)c(CN)c2)ccn2c(=O)c(C(=O)[O-])cc(C3CC3)c12.[K+] [Compound 72K salt, potassium 8-(3-(aminomethyl)-4-hydroxyphenyl)-1-cyclopropyl-9-methyl-4-oxo-4H-quinolizine-3-carboxylate]",0.5 µg/mL,0.008 µg/mL,0.008 to 0.016 µg/mL,0.25 µg/mL,2 µg/mL,0.008 to 0.016 µg/mL,0.25 µg/mL,–,–,–,–,–,–,–,–,–,–,–
"Cc1c(-c2ccc3c(c2)NC(=O)C(N)C3)ccn2c(=O)c(C(=O)O)cc(C3CC3)c12 (stereo not shown) [Compound 54, 8-(3-amino-2-oxo-3,4-dihydro-1H-quinolin-7-yl)-1-cyclopropyl-9-methyl-4-oxo-quinolizine-3-carboxylic acid]",–,–,–,–,4 µg/mL,–,–,> 8 µg/mL,0.064 to 0.125 µg/mL,0.064 µg/mL,4 µg/mL,0.25 µg/mL,0.5 µg/mL,–,–,–,–,–
"Cc1c(-c2ccc3cn[nH]c3c2)ccn2c(=O)c(C(=O)[O-])cc(C3CC3)c12.[K+] [Compound 83K salt, potassium 8-(1H-indazol-6-yl)-1-cyclopropyl-9-methyl-4-oxo-4H-quinolizine-3-carboxylate]",0.5 µg/mL,≤ 0.004 µg/mL,≤ 0.004 µg/mL,0.032 µg/mL,–,0.016 µg/mL,0.064 µg/mL,–,–,–,–,–,–,–,–,–,–,–
"Cc1c(C2=CCNCC2)c(F)cn2c(=O)c(C(=O)[O-])cc(C3CC3)c12.[K+] [Compound 62K salt, potassium 8-(1,2,3,6-tetrahydropyridin-4-yl)-1-cyclopropyl-7-fluoro-9-methyl-4-oxo-4H-quinolizine-3-carboxylate]",1 µg/mL,0.25 µg/mL,–,1 µg/mL,2 µg/mL,0.032 µg/mL,4 µg/mL,–,–,–,–,–,–,–,–,–,–,–
"Cc1c(-c2cccc3[nH]ncc23)ccn2c(=O)c(C(=O)[O-])cc(C3CC3)c12.[K+] [Compound 82K salt, potassium 8-(1H-indazol-4-yl)-1-cyclopropyl-9-methyl-4-oxo-4H-quinolizine-3-carboxylate]",8 µg/mL,0.016 µg/mL,0.016 µg/mL,1 µg/mL,4 µg/mL,0.125 to 0.25 µg/mL,1 µg/mL,–,–,–,–,–,–,–,–,–,–,–
"Cc1c(-c2cnc(N)nc2)ccn2c(=O)c(C(=O)O)cc(C3CC3)c12 [Compound 57, 8-(2-aminopyrimidin-5-yl)-1-cyclopropyl-9-methyl-4-oxo-quinolizine-3-carboxylic acid]",–,–,–,–,> 8 µg/mL,–,–,> 8 µg/mL,0.25 to 0.5 µg/mL,0.25 µg/mL,8 µg/mL,1 µg/mL,8 µg/mL,–,–,–,–,–
"Cc1c(-c2ccc(C(=O)C(F)(F)F)cc2)ccn2c(=O)c(C(=O)O)cc(C3CC3)c12 [Compound 63, 8-[4-(2,2,2-trifluoroacetyl)phenyl]-1-cyclopropyl-9-methyl-4-oxo-quinolizine-3-carboxylic acid]",–,–,–,–,2 µg/mL,–,–,> 8 µg/mL,0.064 µg/mL,0.032 µg/mL,2 µg/mL,0.5 µg/mL,1 µg/mL,–,–,–,–,–
Cc1c(-c2ccc(CN)cc2)c(F)cn2c(=O)c(C(=O)[O-])cc(C3CC3)c12.[K+] [Compound 6K salt],–,–,–,–,–,–,–,–,–,–,–,–,–,"0,064 μg/mL",1 µg/mL,4 µg/mL,0.064 to 0.125 µg/mL,1 µg/mL
